Laboratory results taken from PMC10610115, “Identification of Potential JNK3 Inhibitors: A Combined Approach Using Molecular Docking and Deep Learning-Based Virtual Screening” (Pharmaceuticals, 2023).

Target: T1, JNK3 (c-Jun N-terminal kinase 3) (Homo sapiens, UniProt P53779)
T1 construct: gene MAPK10
Test: HTRF-type kinase assay (Cryptate/XL665), dose response
Type: biochemical

T1 sequence (P53779 whole entry): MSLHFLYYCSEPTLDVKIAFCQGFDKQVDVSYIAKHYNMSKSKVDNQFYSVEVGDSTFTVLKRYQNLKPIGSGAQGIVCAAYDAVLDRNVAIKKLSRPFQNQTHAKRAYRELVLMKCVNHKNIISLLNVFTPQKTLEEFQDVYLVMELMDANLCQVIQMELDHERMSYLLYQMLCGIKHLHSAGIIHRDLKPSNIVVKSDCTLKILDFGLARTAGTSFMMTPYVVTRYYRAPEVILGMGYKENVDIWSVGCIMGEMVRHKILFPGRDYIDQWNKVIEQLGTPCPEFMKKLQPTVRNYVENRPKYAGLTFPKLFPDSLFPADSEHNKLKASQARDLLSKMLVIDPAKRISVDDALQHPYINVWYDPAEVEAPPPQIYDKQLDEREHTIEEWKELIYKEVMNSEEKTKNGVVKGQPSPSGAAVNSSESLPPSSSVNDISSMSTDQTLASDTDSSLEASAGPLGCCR

IC50: 130 nM
Structure (SMILES): CCc1nc(-c2cccc(C)c2)c(-c2ccnc(NC(=O)c3ccccc3)c2)s1 [compound 6, N-(4-(2-ethyl-4-(m-tolyl)thiazol-5-yl)pyridin-2-yl)benzamide]
